{"source": "patent US9782360B2", "about": "“Fluorinated CBD compounds, compositions and uses thereof” (YISSUM RESEARCH DEVELOPMENT COMPANY OF THE HEBREW …, priority 2013, dated 2017)", "key": {"mice tested in the FST [1]": {"system": "mice tested in the FST", "details": "i.p., Swiss mice; doses tested 3, 10, 30 and 100 mg/kg; cited from earlier work"}, "Swiss mice [2]": {"system": "Swiss mice", "details": "Moreira and Guimarães, 2005; cited from earlier work"}, "[3]": {"details": "Campos & Guimarães, 2008; cited from earlier work"}, "Swiss mice [4]": {"system": "Swiss mice", "details": "cited from earlier work"}, "[5]": {"system": "rats submitted to the elevated plus maze", "details": "intra-dlPAG, same paradigm; doses tested: 15, 30 and 60 nmol; cited from earlier work"}, "Swiss mice [6]": {"system": "Swiss mice", "details": "single administration i.p., MK801 0.3-1 mg/kg i.p., also tested 1 and 15 mg/kg; cited from earlier work"}, "[7]": {"system": "mice tested in the elevated plus maze", "experiment": "Elevated plus-maze (EPM) in mice, systemic (IP) administration", "assay_type": "in vivo, Swiss mice", "procedure": "(§1) Male Wistar rats (220-250 g) and Swiss mice (25-30 g) originated from the Central Animal Farm of the School of Medicine of Ribeirão Preto (FMRP-USP) were maintained in groups of five animals per box (41×33×17 cm) in a temperature controlled room (24±2° C.) with a 12×12 h light-dark cycle. They received water and food ad libitum throughout the study period.\n(§2) HU-474 (1, 3 and 10 mg/kg) was administered intraperitoneally (IP) in mice at 10 mL/kg volume and HU-475 (1, 3 and 10 nmol) was injected intra-dlPAG in rats. Both drugs were dissolved in 2% Tween 80 in sterile saline.\nThe wood EPM used to perform the experiments was located in a sound attenuated and temperature controlled room (23° C.), with one incandescent light (40 W) placed 1.3 m away from the maze. The apparatus consists of two opposing open arms (50×10 cm) without side walls, perpendicular to two enclosed arms (50×10×40 cm), with a central platform common to all arms (10×10 cm). The apparatus is elevated 50 cm above the ground and has an acrylic edge (1 cm) in the open arms to prevent animal falls. In this model, rodents naturally avoid the open arms, exploring more extensively the enclosed arms. Anxiolytic drugs increase the exploration in open arms without affecting the number of enclosed arms entries, which is usually used to assess general exploratory activity (File, 1992). Ten minutes after the last injection the animal was placed on the central platform of the maze with the head facing one of the enclosed arms. The test lasted for 5 min and was recorded. The animal behavior was analyzed with the help of the Anymaze Software (version 4.5, Stoelting). This software indicates the location of the animal in the EPM and automatically calculates the percentage of entries (Peo) and time spent in the open arms (Pto) and the number of entries in the enclosed arms (EA). Animals were only considered to enter an open or enclosed arm when 90% of their bodies were inside the region. All experiments were performed in the morning period (8 to 12 a.m.).\nSimilar to 5.1 except that the each arm measured 30×5 cm.\n(§3) Results from HU-475 and HU-474 tests in the elevated plus maze were analyzed by Kruskal-Wallis followed by Mann-Whitney tests. Data from animals tested in the FST were analyzed by one-way ANOVA followed by Duncan test."}, "C57BL/6J mice": {"system": "C57BL/6J mice", "experiment": "Pre-pulse inhibition (PPI) test, impairment induced by MK-801", "assay_type": "in vivo", "procedure": "The experiments were performed using male C57BL/6J mice weighting 25-30 g. The animals were maintained throughout the experimental period under standard laboratory conditions with free access to water and food will be used.\nHU-474 (3 and 10 mg/kg) was dissolved in 2% Tween 80 in sterile saline (vehicle). MK-801 (a NMDA antagonist, 0.5 mg/kg, Sigma, USA) was dissolved in saline. Drugs were administered intraperitoneally (ip) at 10 mL/kg volume.\nThe animals (n=9-11/group) received i.p. administration of vehicle or HU-474 (3 and 10 mg/kg) followed, 30 minutes later, by saline or MK-801 (0.5 mg/kg), resulting in the following experimental groups: vehicle+saline, HU 10+saline, vehicle+MK-801, HU 3+MK-801, HU 10+MK-801. The animals were submitted to PPI test 20 minutes after the last drug injection.\nThe PPI was carried out in three consecutive steps. The first consisted of an acclimation period during which no stimulus was presented. In the second step, called habituation, only the stimulus that triggers the startle (pulse) was presented. The step that assessed the inhibition of startle response pulse consisted of 64 random presentations of the different stimuli: (i) pulse (white noise) 105 dB at 20 ms, (II) pre-pulse (pure tone frequency of 7 kHz) 80, 85 and 90 dB at 10 ms, (III) followed by pre-pulse 100 ms interval between them and (IV) zero (no stimulus). During this session the stimuli are presented at regular intervals of 30 s, 8 presentations of each stimulus. The percentage of the PPI was expressed as the percent inhibition of startle amplitude in response to multiple presentations of the pulse preceded by pre-pulse (PP), depending on the amplitude of the response only to the pulse (P), which was obtained in the following formula: % PPI=100−((PP/P)×100). […]\nThe percentage of PPI was analyzed by repeated measures MANOVA with the treatment as the independent factor and the prepulse intensity (80, 85 and 90 dB) as repeated measure."}, "mice tested in the FST [8]": {"system": "mice tested in the FST", "experiment": "Forced swimming test (FST) in mice", "assay_type": "in vivo, Swiss mice", "details": "for immobility time in the FST: IP", "procedure": "as §1, §2\nAnimals were individually submitted for 6 min of forced swimming in glass cylinders (height 25 cm, diameter 17 cm) containing 10 cm of water. The mice were videotaped and the immobility time (characterized by slow movements necessary to avoid drowning) was measured during the last 4-min period. The water was changed after each trial to maintain the temperature at 23-25° C. and to prevent the influence of alarm substances (Zanelati et al., 2010).\nas §3"}, "[9]": {"system": "rats submitted to the elevated plus maze", "experiment": "Elevated plus-maze (EPM), intra-dlPAG microinjection in rats", "assay_type": "in vivo, Wistar rats", "procedure": "as §1, §2\nRats were submitted to a stereotaxic surgery to unilaterally implant cannulae (9.0 mm, 0.6 mm OD) into the dlPAG (coordinates: lateral: −1.9 mm; depth: −4.3 mm; angle: 16° from lambda; Paxinos and Watson, 2005), fixed to the skull with acrylic cement (Campos & Guimarães, 2008). The surgeries were performed under anesthesia with tribromoethanol 2.5% (10.0 mL/kg, IP) and immediately after the animals received Veterinary Pentabiotic (0.2 mL, intramuscular) and analgesic (Banamine, 1.0 mL/kg, subcutaneous) to prevent infections and decrease post-surgical pain. After surgery, animals underwent a recovery period of 5-7 days before the behavioral tests.\nAnimals received unilateral microinjections of vehicle or HU-475 into the dlPAG before being submitted to the behavioral tests. To this aim, microneedles (10.0 mm, 0.3 mm OD), connected to a microsyringe (Hamilton, USA, […]) through a segment of polyethylene (P10) were inserted into the guide cannulae. Solutions were injected with the help of an infusion pump (KD Scientific, USA). A 0.2 μL solution volume was injected over 1 min. After the injections, the needles remained inserted in the cannulae for additional 30 seconds to prevent drug reflux (Campos & Guimarães, 2008).\nThe wood EPM used to perform the experiments was located in a sound attenuated and temperature controlled room (23° C.), with one incandescent light (40 W) placed 1.3 m away from the maze. The apparatus consists of two opposing open arms (50×10 cm) without side walls, perpendicular to two enclosed arms (50×10×40 cm), with a central platform common to all arms (10×10 cm). The apparatus is elevated 50 cm above the ground and has an acrylic edge (1 cm) in the open arms to prevent animal falls. In this model, rodents naturally avoid the open arms, exploring more extensively the enclosed arms. […] The test lasted for 5 min and was recorded. The animal behavior was analyzed with the help of the Anymaze Software (version 4.5, Stoelting). […]\nas §3"}}, "note": "“And” between values parts separate entries of the source, which are not always exact repeats. Identical values can stand only once."}
{"smiles": "C=C(C)[C@@H]1CCC(C)=C[C@H]1c1c(O)cc(CCCCC)cc1O", "note": "[CBD, cannabidiol]", "values": [{"measurement": "dose producing an antidepressant-like effect in the forced swimming test", "setting": "mice tested in the FST [1]", "result": 30, "unit": "mg/kg"}, {"measurement": "dose able to attenuate the hyper-locomotion induced by MK801", "setting": "Swiss mice [2]", "result": 30, "unit": "mg/kg"}, {"measurement": "dose producing an anxiolytic-like effect in the Vogel punished licking test", "setting": "[3]", "result": 30, "unit": "nmol"}, {"measurement": "effective doses (hyperlocomotion induced by d-amphetamine)", "setting": "Swiss mice [4]", "result": "30 mg/kg and 60 mg/kg"}, {"measurement": "effective dose (anxiolytic-like effect, EPM)", "setting": "[5]", "result": 30, "unit": "nmol"}, {"measurement": "effective dose (attenuation of PPI deficits caused by MK801)", "setting": "Swiss mice [6]", "result": 5, "unit": "mg/kg"}]}
{"smiles": "C=C(C)[C@@H]1CCC(C)=CC1c1c(O)cc(CCCCC)c(F)c1O", "note": "(some centres unmarked) [HU-474, 4′-fluoro-cannabidiol]", "values": [{"measurement": "number of enclosed arms entries", "setting": "[7]; HU-474 1, 3 and 10 mg/kg IP", "result": "No effect"}, {"measurement": "percentage of entries onto the open arms", "setting": "[7]; HU-474 1, 3 and 10 mg/kg IP, FIG. 4", "result": "No effect"}, {"measurement": "percentage of time spent in the open arms", "setting": "[7]; HU-474 1, 3 and 10 mg/kg IP, X^2=8.13, DF=3, p<0.05, FIG. 3", "result": "increased"}, {"measurement": "effective dose (anxiolytic-like effects, EPM)", "setting": "[7]; systemic administration, bell-shaped dose-response curve", "result": 3, "unit": "mg/kg"}, {"measurement": "MK-801 PPI disruption (effect of treatment)", "setting": "C57BL/6J mice; HU-474 10 mg/kg i.p., MK-801 0.5 mg/kg, all prepulse intensities (80, 85, 90 dB), P<0.05, FIG. 6", "result": "attenuated"}, {"measurement": "effective dose (attenuation of MK-801 PPI disruption)", "setting": "C57BL/6J mice; i.p., C57BL/6J mice", "result": 10, "unit": "mg/kg"}, {"measurement": "immobility time in the FST", "setting": "mice tested in the FST [8]; dose of 3 m/kg, p=0.019, FIG. 5", "result": "decreased"}, {"measurement": "immobility time in the FST", "setting": "mice tested in the FST [8]; doses of 1 and 10 mg/kg", "result": "ineffective"}, {"measurement": "potency relative to CBD (forced swimming test)", "setting": "mice tested in the FST [8]; i.p., compared with CBD effective dose", "result": 10, "unit": "times"}]}
{"smiles": "C=C(CF)[C@@H]1CCC(C)=CC1c1c(OC(C)=O)cc(CCCCC)cc1OC(C)=O", "note": "(some centres unmarked) [HU-475, 10-fluoro-cannabidiol diacetate]", "values": [{"measurement": "number of enclosed arm entries", "setting": "[9]; HU-475 1, 3 and 10 nmol intra-dlPAG", "result": "No effect"}, {"measurement": "percentage of time spent into the open arms", "setting": "[9]; HU-475 1, 3 and 10 nmol intra-dlPAG, X^2=8.5, DF=4, p=0.075, FIG. 2", "result": "tended to do the same"}, {"measurement": "percentage of entries onto the open arms", "setting": "[9]; HU-475 1, 3 and 10 nmol intra-dlPAG, X^2=9.66, DF=4, p<0.05, FIG. 1", "result": "increased"}, {"measurement": "potency relative to CBD (EPM, intra-dlPAG)", "setting": "[9]; intra-dlPAG, compared with CBD effective dose", "result": 10, "unit": "times"}]}
{"smiles": "C[C@]12N[C@H](Cc3ccccc31)c1ccccc12", "note": "[MK-801, reference compound]", "values": [{"measurement": "effect on PPI", "setting": "C57BL/6J mice; MK-801 0.5 mg/kg i.p., all prepulse intensities tested, P<0.05, Duncan post-test", "result": "significant PPI disruption"}]}
